Assay results as given in patent publication US11098041B2 (Merck Patent GmbH, priority 2014, dated 2021).

Key:
[1] = system: anti-IgM-induced expression of CD69 on CD19 positive cells (B cells) in human PBMCs; test: Assay C: PBMC IC50 assay (anti-IgM-induced CD69 expression); assay type: cell-based; details: anti-IgM stimulation
Experimental: Btk is critical for mediating the signalling of B cell antigen receptor (BCR) after anti-IgM stimulation. Based on this principle, a functional cell-based assay was established to determine the potency of compounds at inhibiting anti-IgM-induced expression of CD69, a downstream BCR signaling event, in freshly isolated human peripheral blood mononuclear cells (PBMCs). In the assay, a 90 μl PBMC suspension containing 2.5×10^5 cells was pre-treated with 10 μl of test compound at various concentrations for an hour, and then incubated overnight (approximately 16-18 hours) with 5 μl 420 μg/ml affiniPure F(ab′)2 fragment goat anti-human IgM Fc fragment per well (Dianova, Cat. No.: 109-006-129). After the incubation, the cells were washed and immunostained with an APC-labeled mouse anti-human CD69 (BD Biosciences; clone: FN50), a PerCP-Cy5.5 labelled mouse anti-human CD19 (BD Biosciences; clone: SJ25C1) and a FITC-labelled mouse anti-human CD3 (BD Biosciences; clone: HIT3a), and fixed for flow cytometric analysis of CD69 expression on CD19 positive cells (B cells). The percentage of CD69 expressing CD19 positive cells was plotted against the concentrations of test compounds to obtain a concentration response curve, and calculate an IC50 value as a measure of the potency of test compounds in the assay.

[2] = target: full-length human BTK (Homo sapiens (Human), UniProt Q06187); test: Assay A: microfluidic off-chip mobility shift assay against BTK enzyme; assay type: biochemical
Chain of full-length human BTK (Q06187 whole entry): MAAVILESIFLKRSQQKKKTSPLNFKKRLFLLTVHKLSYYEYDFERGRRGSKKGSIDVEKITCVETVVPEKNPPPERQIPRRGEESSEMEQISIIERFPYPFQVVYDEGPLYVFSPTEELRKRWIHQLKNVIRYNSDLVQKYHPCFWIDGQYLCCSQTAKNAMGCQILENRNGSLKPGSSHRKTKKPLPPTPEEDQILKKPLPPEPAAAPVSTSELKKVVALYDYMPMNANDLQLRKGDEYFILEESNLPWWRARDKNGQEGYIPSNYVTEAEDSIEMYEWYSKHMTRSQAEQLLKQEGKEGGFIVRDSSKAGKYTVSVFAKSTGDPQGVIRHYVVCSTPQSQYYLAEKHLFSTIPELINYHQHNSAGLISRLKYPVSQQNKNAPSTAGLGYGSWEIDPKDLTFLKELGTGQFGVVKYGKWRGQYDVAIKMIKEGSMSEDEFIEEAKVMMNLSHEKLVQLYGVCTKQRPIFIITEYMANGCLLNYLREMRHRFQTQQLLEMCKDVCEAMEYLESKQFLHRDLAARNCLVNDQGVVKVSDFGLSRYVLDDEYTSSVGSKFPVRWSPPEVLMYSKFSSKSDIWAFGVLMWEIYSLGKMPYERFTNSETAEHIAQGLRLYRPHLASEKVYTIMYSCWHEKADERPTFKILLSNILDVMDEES
Experimental: Assay A: Microfluidic Off-Chip Mobility Shift Assay Protocol for Potency Assessment Against BTK Enzyme
The protocol below describes microfluidic, off-chip mobility shift kinase assay to measure inherent potency of compounds against BTK enzyme.
5 uL of enzyme buffer and 7.5 uL of ATP/kinKDR peptide substrate mix were added to Matrix (#115304) 384-well, sterile, polypropylene plates (Thermo Fisher Scientific, Hudson, N.H.) with 125 nL of serially diluted compounds prepared in 100% DMSO, and incubated for 90 min. at 27° C. Following the incubation period, reactions were stopped by adding 60 uL stop buffer consisting of 100 mM HEPES, pH 7.5, 0.015% Brij-35 (30%), 0.277% Coating Reagent #3 (Caliper Life Sciences, Mountain View, Calif.), 5% DMSO. Stopped reactions were monitored at −2 PSI, −3000 V/−700 V in a LabChip 3000 plate reader from Caliper Life Sciences, a PerkinElmer Company (Hopkinton, Mass.), and the activity was measured by off-chip mobility shift assay measuring the charge/mass difference between substrate and product resulting from peptide phosphorilation. IC50 and efficacy were determined by plotting log [Inhibitor] vs. % Activity in GeneData Screener (Basel. Switzerland).

[3] = target: BTK C481S (His-TEV-hsBTK(328-659)(C481S)) (Homo sapiens (Human), UniProt Q06187, C481S); test: Assay B: microfluidic off-chip mobility shift assay against BTK C481S enzyme; assay type: biochemical; details: BTK C481S mutant
Chain of BTK C481S (His-TEV-hsBTK(328-659)(C481S)) (Q06187 328-659 C481S): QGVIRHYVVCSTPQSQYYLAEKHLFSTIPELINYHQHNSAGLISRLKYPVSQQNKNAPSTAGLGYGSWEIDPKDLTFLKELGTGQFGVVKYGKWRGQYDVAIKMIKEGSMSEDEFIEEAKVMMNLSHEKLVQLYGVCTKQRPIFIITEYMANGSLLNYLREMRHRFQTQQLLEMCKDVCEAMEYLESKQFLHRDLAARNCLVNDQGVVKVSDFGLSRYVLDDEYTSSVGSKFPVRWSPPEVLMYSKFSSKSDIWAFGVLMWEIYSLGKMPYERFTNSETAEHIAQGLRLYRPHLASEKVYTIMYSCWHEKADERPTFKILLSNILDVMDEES
Experimental: The mechanics of the assay platform are described by the vendor (PerkinElmer, Hopkinton, Mass.) on their website at the following URL: http://caliperls.com.
5 uL of enzyme buffer and 7.5 uL of ATP/KinKDR peptide substrate mix were added to Matrix (#4315) 384-well, sterile, flat-bottom polypropylene plates (Thermo Fisher Scientific, Hudson, N.H.) with 125 nL of serially diluted compounds prepared in 100% DMSO, and incubated for 90 min. at 25° C. Following the incubation period, reactions were terminated by adding 65 uL quench buffer consisting of 100 mM HEPES, pH 7.5, 0.015% Brij-35 (30%), 0.277% Coating Reagent #3 (PerkinElmer, Mountain View, Calif.), 5% DMSO. Terminated reactions were monitored at −2 PSI, −3000 V/−700 Volts in a LabChip 3000 plate reader from Caliper Life Sciences, a PerkinElmer Company (Hopkinton, Mass.), and the activity was quantified by laser-induced fluorescence measuring the charge/mass difference between substrate and product resulting from peptide phosphorylation. IC50 and efficacy were determined by plotting log [Inhibitor] vs. % Activity in GeneData Screener (Basel, Switzerland).

Compound | IC50 [1] | IC50 [2] | IC50 [3]
COc1cccc(-c2nc3c(-c4ccc(CNC(=O)c5noc(C(C)(C)C)n5)c(F)c4)ccnc3[nH]2)c1 [Example 73, 5-tert-Butyl-N-([2-fluoro-4-[2-(3-methoxyphenyl)-3H-imidazo[4,5-b]pyridin-7-yl]phenyl]methyl)-1,2,4-oxadiazole-3-carboxamide] | 0.1 to 1 µM | < 0.1 µM | –
CN1CCN(Cc2ccc(-c3nc4c(-c5ccc(CNC(=O)c6noc(C(C)(C)C)n6)c(F)c5)ccnc4[nH]3)nc2)CC1 [Example 69, 5-tert-Butyl-N-[[2-fluoro-4-(2-[5-[(4-methylpiperazin-1-yl)methyl]pyridin-2-yl]-3H-imidazo[4,5-b]pyridin-7-yl)phenyl]methyl]-1,2,4-oxadiazole-3-carboxamide] | < 0.1 µM | < 0.1 µM | –
CN(C)C(=O)N1CC=C(c2nc3c(-c4ccc(CNC(=O)c5noc(C(C)(C)C)n5)c(F)c4)ccnc3[nH]2)CC1 [Example 143, 4-[7-(4-{[(5-tert-Butyl-[1,2,4]oxadiazole-3-carbonyl)-amino]-methyl}-3-fluoro-phenyl)-3H-imidazo[4,5-b]pyridin-2-yl]-3,6-dihydro-2H-pyridine-1-carboxylic Acid Dimethylamide] | < 0.1 µM | < 0.1 µM | –
CCn1cc(-c2nc3c(-c4ccc(CNC(=O)c5noc(C(C)(C)C)n5)c(F)c4)ccnc3[nH]2)cn1 [Example 131, 5-tert-Butyl-[1,2,4]oxadiazole-3-carboxylic acid 4-[2-(1-ethyl-1H-pyrazol-4-yl)-3H-imidazo[4,5-b]pyridin-7-yl]-2-fluoro-benzylamide] | < 0.1 µM | < 0.1 µM | –
CC(C)(C)c1noc(C(=O)NCc2ccc(-c3ccnc4[nH]c(C5CC5)nc34)cc2F)n1 [Example 28, 3-tert-Butyl-[1,2,4]oxadiazole-5-carboxylic acid 4-(2-cyclopropyl-3H-imidazo[4,5-b]pyridin-7-yl)-2-fluoro-benzylamide] | 1 to 5 µM | – | –
CCn1cc(-c2nc3c(-c4ccc(CNC(=O)c5nnc(C(C)(C)C)o5)c(F)c4)ccnc3[nH]2)cn1 [Example 135, 5-(tert-butyl)-N-(4-(2-(1-ethyl-1H-pyrazol-4-yl)-3H-imidazo[4,5-b]pyridin-7-yl)-2-fluorobenzyl)-1,3,4-oxadiazole-2-carboxamide] | < 0.1 µM | < 0.1 µM | –
Cn1cc(-c2nc3c(-c4ccc(CNC(=O)c5cc6c(s5)CCCC6)c(F)c4)ccnc3[nH]2)cn1 [Example 132, N-(2-fluoro-4-(2-(1-methyl-1H-pyrazol-4-yl)-3H-imidazo[4,5-b]pyridin-7-yl)benzyl)-4,5,6,7-tetrahydrobenzo[b]thiophene-2-carboxamide] | 0.1 to 1 µM | – | –
Cc1c(NC(=O)c2ccc3c(c2)OCC3(C)C)cc(F)cc1-c1ccnc2[nH]c(-c3ccc(C(=O)N4CCOCC4)cc3)nc12 [Example 4, N-[5-Fluoro-2-methyl-3-(2-[4-[(morpholin-4-yl)carbonyl]phenyl]-3H-imidazo[4,5-b]pyridin-7-yl)phenyl]-3,3-dimethyl-2,3-dihydro-1-benzofuran-6-carboxamide] | 0.1 to 1 µM | < 0.1 µM | –
Cn1cc(-c2nc3c(-c4ccc(CNC(=O)C5CCC(C(C)(C)C)CC5)c(F)c4)ccnc3[nH]2)cn1 (stereo not drawn) [Example 15, 4-tert-Butyl-cyclohexanecarboxylic acid 2-fluoro-4-[2-(1-methyl-1H-pyrazol-4-yl)-3H-imidazo[4,5-b]pyridin-7-yl]-benzylamide] | 1 to 5 µM | – | –
COc1cccnc1-c1nc2c(-c3ccc(CNC(=O)c4nc(C(C)(C)C)no4)c(F)c3)ccnc2[nH]1 [Example 152, 3-(tert-butyl)-N-(2-fluoro-4-(2-(3-methoxypyridin-2-yl)-3H-imidazo[4,5-b]pyridin-7-yl)benzyl)-1,2,4-oxadiazole-5-carboxamide] | – | < 0.1 µM | < 0.1 µM
Cn1cc(-c2nc3c(-c4ccc(CNC(=O)c5nc(C6(C)CC6)no5)c(F)c4)ccnc3[nH]2)cn1 [Example 165, N-([2-fluoro-4-[2-(1-methyl-1H-pyrazol-4-yl)-3H-imidazo[4,5-b]pyridin-7-yl]phenyl]methyl)-3-(1-methylcyclopropyl)-1,2,4-oxadiazole-5-carboxamide] | 0.1 to 1 µM | – | –
Cn1cc(-c2nc3c(-c4cccc(NC(=O)c5noc(C(C)(C)C)n5)c4CO)ccnc3[nH]2)cn1 [Example 43, 5-tert-Butyl-N-[2-(hydroxymethyl)-3-[2-(1-methyl-1H-pyrazol-4-yl)-3H-imidazo[4,5-b]pyridin-7-yl]phenyl]-1,2,4-oxadiazole-3-carboxamide] | – | 0.1 to 1 µM | 0.1 to 1 µM
Cn1cc(-c2nc3c(-c4ccc(CNC(=O)c5csc(C(F)(F)F)n5)c(F)c4)ccnc3[nH]2)cn1 [Example 22, 2-Trifluoromethyl-thiazole-4-carboxylic acid 2-fluoro-4-[2-(1-methyl-1H-pyrazol-4-yl)-3H-imidazo[4,5-b]pyridin-7-yl]-benzylamide] | – | 0.1 to 1 µM | 0.1 to 1 µM
Cc1cc(-c2ccnc3[nH]c(-c4cnn(C)c4)nc23)ccc1CNC(=O)C(N)=O [Example 101, N-{2-Methyl-4-[2-(1-methyl-1H-pyrazol-4-yl)-3H-imidazo[4,5-b]pyridin-7-yl]-benzyl}-oxalamide] | – | 1 to 5 µM | 1 to 5 µM
CCn1cc(C(=O)NCc2ccc(-c3ccnc4[nH]c(-c5cnn(C)c5)nc34)cc2F)cn1 [Example 20, 1-Ethyl-1H-pyrazole-4-carboxylic acid 2-fluoro-4-[2-(1-methyl-1H-pyrazol-4-yl)-3H-imidazo[4,5-b]pyridin-7-yl]-benzylamide] | – | < 0.1 µM | < 0.1 µM
Cn1cc(-c2nc3c(-c4ccc(C(C)(C)NC(=O)C(N)=O)c(F)c4)ccnc3[nH]2)cn1 [Example 102, N-(1-{2-Fluoro-4-[2-(1-methyl-1H-pyrazol-4-yl)-3H-imidazo[4,5-b]pyridin-7-yl]-phenyl}-1-methyl-ethyl)-oxalamide] | – | 1 to 5 µM | 1 to 5 µM
CC(C)(C)c1nc(C(=O)Nc2cccc(-c3ccnc4[nH]c(-c5ccc(C(=O)N6CCOCC6)cc5)nc34)c2CO)no1 [Example 45, 5-tert-Butyl-N-[2-(hydroxymethyl)-3-(2-[4-[(morpholin-4-yl)carbonyl]phenyl]-3H-imidazo[4,5-b]pyridin-7-yl)phenyl]-1,2,4-oxadiazole-3-carboxamide] | – | < 0.1 µM | < 0.1 µM
CC(C)(C)c1cc(C(=O)NCc2ccc(-c3ccnc4[nH]c(C5CCNC(=O)C5)nc34)cc2F)no1 (stereo not drawn) [Example 29, 5-tert-Butyl-isoxazole-3-carboxylic acid 2-fluoro-4-[2-(2-oxo-piperidin-4-yl)-3H-imidazo[4,5-b]pyridin-7-yl]-benzylamide] | – | 1 to 5 µM | 0.1 to 1 µM
Cn1cc(-c2nc3c(-c4cnc(CNC(=O)c5nnc(C(C)(C)C)o5)c(F)c4)ccnc3[nH]2)cn1 [Example 13, 5-tert-Butyl-[1,3,4]oxadiazole-2-carboxylic acid {3-fluoro-5-[2-(1-methyl-1H-pyrazol-4-yl)-3H-imidazo[4,5-b]pyridin-7-yl]-pyridin-2-ylmethyl}-amide] | – | 0.1 to 1 µM | < 0.1 µM
CC(C)(C)c1ccc(C(=O)Nc2cccc(-c3ccnc4[nH]c(-c5ccc(C(=O)N6CCOCC6)cc5)nc34)c2CO)cc1 [Example 46, 4-tert-Butyl-N-[2-(hydroxymethyl)-3-(2-[4-[(morpholin-4-yl)carbonyl]phenyl]-3H-imidazo[4,5-b]pyridin-7-yl)phenyl]benzamide] | – | 1 to 5 µM | 1 to 5 µM
